Paper PMC12621183 (Journal of Medicinal Chemistry, 2025)
Entries after “also recorded” stand apart in the source; their conditions may differ. Read-outs that look alike come from different tables or passages of the source.

How the values were obtained:
[1] = test system: K562 wild-type cells; assay: cells; type: cell-based; conditions: for apoptosis induction: K562 cells, 72-h exposure; for CC50: K562 wild-type, 72 h, Annexin V/7-AAD, read-out: LC50 (the source's name)
Description: (§1) K562 wild-type, K562/DOX, OCI-AML3, HaCaT and healthy B cell cytotoxicity screening. Healthy B-lymphocytes were obtained from healthy donor blood samples using density gradient centrifugation with Histopaque.
(§2) All cells were maintained at 37 °C in atmospheric conditions of 5% CO2. Cytotoxicity screening was carried out in triplicate with these cells at a cell density of 0.5 × 10^6 cells/mL. Cells were treated with test compounds at a range of concentrations to establish LC50 values. Cells were incubated with the compounds for 72 h before being harvested by centrifugation. Subsequently, cells were labeled with Annexin V and 7-AAD (bioscience) in accordance with the manufacturer’s instructions. Following staining with FITC-labeled annexin V and 7-AAD, samples were analyzed using CytExpert software on a CytoFLEX LX flow cytometer (Beckman Coulter) to determine relative levels of cell death in the sample. Prism 10 software was then used to analyze the data to obtain dose–response curves.

[2] = test system: K562/DOX cells; assay: cells; type: cell-based
Description: as §1, §2

[3] = molecular target: recombinant ABL1 kinase (Homo sapiens, UniProt P00519); assay: ABL1 kinase assay (ADP-Glo); type: biochemical
Description: Kinase inhibition was assessed using luminescent ADP-Glo–based assays. […] No-enzyme and no-compound reactions served as 0% and 100% activity controls, respectively. Luminescence was quantified using a Tecan Spark plate reader, and kinase activity or inhibition was calculated relative to controls.

[4] = molecular target: T1, PDGFRα (D842Y) (Homo sapiens, UniProt P16234, D842Y); assay: PDGFRα (D842Y) Chemi-Verse kinase assay; type: biochemical; conditions: compared with imatinib
T1 construct: purchased Cambridge Biosciences (Chemi-Verse kinase assays)
Description: (§3) Reactions were set up under the supplier’s recommended conditions, with recombinant kinases (5 ng/μL final), peptide substrates, and ATP in kinase assay buffer. Test inhibitors or vehicle were added, and reactions were incubated at 30 °C for 45 min. ADP formation was quantified with ADP-Glo detection, and percent inhibition was determined relative to DMSO controls.

[5] = test system: K562/DOX cells; assay: Effect of P-gp activity on apoptosis using verapamil (K562/DOX); type: cell-based, human; conditions: for Fold change in LC50 (+/- verapamil): efflux factor; for effect of P-gp inhibition by verapamil on cytotoxicity: with and without verapamil
Description: Cells were seeded onto 96-well plates at a concentration of 0.5 × 10^6 cells/well in a final volume of 200 μL. […] After a 72-h incubation period with the test compounds, both with and without the inhibitor, apoptotic cells were evaluated using the Annexin V assay to determine the extent of apoptosis.

[6] = test system: HaCaT cells; type: cell-based; conditions: ratio of IC50 in HaCaT cells to LC50 in K562 wild-type
Description: HaCaT cells were seeded in a 96-well plate in DMEM at a density of 3 × 10^3 cells/well and incubated for 24 h at 37 °C in a humidified incubator with 5% CO2. The cells were then treated with a series of drug concentrations (0.1–100 μM) and incubated for a further 72 h at 37 °C. After treatment, the media in each well, including control wells, was replaced with MTT reagent (0.1 mg/well in media) and incubated for 4 h at 37 °C. Following incubation, the MTT reagent was carefully removed, and 200 μL of DMSO was added to each well to solubilize the formazan crystals. The plate was shaken for 10 min, and the optical density (OD) was measured at 570 nm using a microplate reader.

[7] = molecular target: T2, CSF-1R (Homo sapiens, UniProt P07333); assay: CSF-1R Chemi-Verse kinase assay; type: biochemical; conditions: compared with imatinib
T2 construct: purchased Cambridge Biosciences (Chemi-Verse kinase assays)
Description: as §3

[8] = test system: healthy B-lymphocytes; assay: Cytotoxicity in healthy B-lymphocytes (Annexin V/7-AAD); type: cell-based; conditions: concentrations up to 100 μM
Description: K562 wild-type, K562/DOX, OCI-AML3, HaCaT and healthy B cell cytotoxicity screening. Healthy B-lymphocytes were obtained from healthy donor blood samples using density gradient centrifugation with Histopaque. Informed consent was obtained from all human participants in this study and experiments were performed in accordance with ethical approval granted by the local research ethics committee (17/SW/0263). […]
All cells were maintained at 37 °C in atmospheric conditions of 5% CO2. […] Following staining with FITC-labeled annexin V and 7-AAD, samples were analyzed using CytExpert software on a CytoFLEX LX flow cytometer (Beckman Coulter) to determine relative levels of cell death in the sample. […]

[9] = test system: K562 wild-type cells; assay: LC-MS/MS accumulation assay in K562 wild-type cells; type: in vitro ADME, human; conditions: 50 μM drug, 2 h
Description: K562 wild-type and K562/DOX cells were seeded in 6-well plates at a density of 1 × 10^6 cells per well in a final volume of 2 mL and cultured for 24 h at 37 °C in a humidified incubator with 5% CO2. The cells were then treated with 50 μM of the drug and incubated for 2 h. After incubation, the cells were harvested, washed with ice-cold phosphate-buffered saline (PBS), and pelleted. Intracellular drug was extracted by lysing the cells with 400 μL of methanol, aided by sonication. The lysates were centrifuged at 7200 rcf, and the supernatant was collected for analysis by LC-MS/MS. Drug quantification was performed using an external calibration method. Stock solutions of each compound were prepared in methanol and used to generate calibration standards in methanol/DMSO (70:30, %v/v). Experimental samples were diluted in the same solvent mixture prior to analysis. […]
The UHPLC system was coupled to a Shimadzu 8060 triple quadrupole mass spectrometer with an electrospray ionization (ESI) source operating in positive ion mode. […] Multiple reaction monitoring (MRM) transitions (Table S2) were used for quantification with a dwell time of 100 ms per transition. […] Statistical significance of differences in intracellular accumulation between drugs and cell lines was assessed using the nonparametric Mann–Whitney test (n = 6).

[10] = LC-MS/MS accumulation assay in P-gp-overexpressing K562/DOX cells; type: in vitro ADME, human; conditions: human; K562 wild-type vs K562/DOX
Description: (§4) K562 wild-type and K562/DOX cells were seeded in 6-well plates at a density of 1 × 10^6 cells per well in a final volume of 2 mL and cultured for 24 h at 37 °C in a humidified incubator with 5% CO2. The cells were then treated with 50 μM of the drug and incubated for 2 h. After incubation, the cells were harvested, washed with ice-cold phosphate-buffered saline (PBS), and pelleted. Intracellular drug was extracted by lysing the cells with 400 μL of methanol, aided by sonication. The lysates were centrifuged at 7200 rcf, and the supernatant was collected for analysis by LC-MS/MS. Drug quantification was performed using an external calibration method. Stock solutions of each compound were prepared in methanol and used to generate calibration standards in methanol/DMSO (70:30, %v/v). Experimental samples were diluted in the same solvent mixture prior to analysis.
(§5) Chromatographic separation was performed on a Shimadzu Nexera XR ultrahigh-performance liquid chromatography (UHPLC) system comprising two LC-20AD pumps, a DGC degasser, a SIL-30AC autosampler, a CBM-20A controller, and a column oven. The system was fitted with an Ascentis Express C18 column (5 cm × 2.1 mm, 2.7 μm particle size). Elution was performed with a binary solvent system: eluent A, 0.1% formic acid in water; eluent B, 0.1% formic acid in methanol. The gradient program was as follows: 5% B for 0.5 min, increased to 40% B over 3.5 min, increased to 95% B over 2 min, held at 95% B for 1.5 min, then returned to 5% B at 8 min and held for 3 min for re-equilibration. The mobile phase flow rate was 0.21 mL/min. The column oven was maintained at 40 °C and the autosampler at 10 °C.
(§6) The UHPLC system was coupled to a Shimadzu 8060 triple quadrupole mass spectrometer with an electrospray ionization (ESI) source operating in positive ion mode. […] Multiple reaction monitoring (MRM) transitions (Table S2) were used for quantification with a dwell time of 100 ms per transition. Data were normalized against standards prepared using the initial drug concentration in the lysis solution. Statistical significance of differences in intracellular accumulation between drugs and cell lines was assessed using the nonparametric Mann–Whitney test (n = 6).

[11] = test system: K562/DOX cells; assay: as above; type: in vitro ADME, human; conditions: for increase in intracellular concentration: K562/DOX relative to K562 wild-type; for intracellular accumulation (concentration): K562/DOX, 50 μM drug, 2 h; for higher intracellular concentration relative to imatinib: within K562/DOX cells
Description: as §4, §5, §6

[12] = Homo sapiens, K562, 72 h, read-out: LC50, K562/DOX, 72 h, Annexin V/7-AAD

Sequence of recombinant ABL1 kinase (P00519 whole entry): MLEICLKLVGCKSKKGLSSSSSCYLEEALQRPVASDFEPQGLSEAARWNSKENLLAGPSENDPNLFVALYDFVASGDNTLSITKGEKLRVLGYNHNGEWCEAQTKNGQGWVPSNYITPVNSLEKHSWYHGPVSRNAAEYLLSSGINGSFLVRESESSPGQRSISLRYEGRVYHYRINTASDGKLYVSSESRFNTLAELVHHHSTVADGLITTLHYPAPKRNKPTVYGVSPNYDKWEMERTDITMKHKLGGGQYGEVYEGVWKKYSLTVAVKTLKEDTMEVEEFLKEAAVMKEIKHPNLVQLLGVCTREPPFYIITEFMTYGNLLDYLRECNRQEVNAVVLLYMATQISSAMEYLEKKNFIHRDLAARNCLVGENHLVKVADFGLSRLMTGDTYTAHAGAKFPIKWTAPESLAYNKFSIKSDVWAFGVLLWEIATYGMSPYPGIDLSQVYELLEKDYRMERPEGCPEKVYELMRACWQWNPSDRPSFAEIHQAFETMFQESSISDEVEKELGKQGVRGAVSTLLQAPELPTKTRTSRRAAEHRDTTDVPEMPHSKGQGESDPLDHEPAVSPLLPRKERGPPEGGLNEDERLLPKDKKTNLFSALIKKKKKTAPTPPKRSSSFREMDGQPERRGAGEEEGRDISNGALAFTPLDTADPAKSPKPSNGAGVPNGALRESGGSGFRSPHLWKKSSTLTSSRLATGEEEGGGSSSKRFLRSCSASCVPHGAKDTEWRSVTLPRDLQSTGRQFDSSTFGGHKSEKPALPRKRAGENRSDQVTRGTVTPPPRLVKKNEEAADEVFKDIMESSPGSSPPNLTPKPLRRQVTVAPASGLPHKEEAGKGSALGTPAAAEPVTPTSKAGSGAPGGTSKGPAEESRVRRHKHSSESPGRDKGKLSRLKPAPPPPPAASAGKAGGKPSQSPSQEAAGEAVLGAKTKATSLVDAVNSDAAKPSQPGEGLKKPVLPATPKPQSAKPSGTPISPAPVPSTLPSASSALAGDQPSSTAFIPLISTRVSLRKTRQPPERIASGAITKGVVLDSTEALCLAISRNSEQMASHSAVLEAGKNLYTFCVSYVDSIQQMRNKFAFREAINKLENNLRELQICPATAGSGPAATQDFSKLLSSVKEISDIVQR
T2 sequence (P07333 20-972): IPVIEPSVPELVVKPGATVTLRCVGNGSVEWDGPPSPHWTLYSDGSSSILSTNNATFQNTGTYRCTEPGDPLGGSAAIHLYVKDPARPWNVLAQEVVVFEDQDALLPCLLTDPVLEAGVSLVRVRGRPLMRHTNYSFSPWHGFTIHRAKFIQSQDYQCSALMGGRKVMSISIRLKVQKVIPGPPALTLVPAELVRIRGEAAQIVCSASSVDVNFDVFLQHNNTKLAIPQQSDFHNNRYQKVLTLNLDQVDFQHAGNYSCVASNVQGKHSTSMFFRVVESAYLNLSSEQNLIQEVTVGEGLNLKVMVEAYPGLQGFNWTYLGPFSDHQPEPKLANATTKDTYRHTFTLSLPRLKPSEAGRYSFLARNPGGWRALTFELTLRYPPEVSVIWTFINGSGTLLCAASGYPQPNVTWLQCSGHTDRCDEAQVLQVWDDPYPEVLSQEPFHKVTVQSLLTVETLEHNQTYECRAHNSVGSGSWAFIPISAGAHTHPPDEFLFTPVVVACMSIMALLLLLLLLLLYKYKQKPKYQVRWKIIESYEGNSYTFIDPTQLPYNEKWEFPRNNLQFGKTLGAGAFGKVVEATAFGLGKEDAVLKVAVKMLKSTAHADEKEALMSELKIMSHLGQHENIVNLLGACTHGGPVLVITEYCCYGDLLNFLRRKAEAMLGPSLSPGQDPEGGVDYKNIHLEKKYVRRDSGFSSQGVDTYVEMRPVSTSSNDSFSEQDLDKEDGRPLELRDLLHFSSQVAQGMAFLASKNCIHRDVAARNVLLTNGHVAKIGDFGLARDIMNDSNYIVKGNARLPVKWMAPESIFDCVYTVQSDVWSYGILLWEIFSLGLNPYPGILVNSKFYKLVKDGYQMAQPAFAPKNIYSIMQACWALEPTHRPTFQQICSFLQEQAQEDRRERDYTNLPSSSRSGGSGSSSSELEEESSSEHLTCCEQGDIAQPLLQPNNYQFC
T1 sequence (P16234 24-1089 D842Y): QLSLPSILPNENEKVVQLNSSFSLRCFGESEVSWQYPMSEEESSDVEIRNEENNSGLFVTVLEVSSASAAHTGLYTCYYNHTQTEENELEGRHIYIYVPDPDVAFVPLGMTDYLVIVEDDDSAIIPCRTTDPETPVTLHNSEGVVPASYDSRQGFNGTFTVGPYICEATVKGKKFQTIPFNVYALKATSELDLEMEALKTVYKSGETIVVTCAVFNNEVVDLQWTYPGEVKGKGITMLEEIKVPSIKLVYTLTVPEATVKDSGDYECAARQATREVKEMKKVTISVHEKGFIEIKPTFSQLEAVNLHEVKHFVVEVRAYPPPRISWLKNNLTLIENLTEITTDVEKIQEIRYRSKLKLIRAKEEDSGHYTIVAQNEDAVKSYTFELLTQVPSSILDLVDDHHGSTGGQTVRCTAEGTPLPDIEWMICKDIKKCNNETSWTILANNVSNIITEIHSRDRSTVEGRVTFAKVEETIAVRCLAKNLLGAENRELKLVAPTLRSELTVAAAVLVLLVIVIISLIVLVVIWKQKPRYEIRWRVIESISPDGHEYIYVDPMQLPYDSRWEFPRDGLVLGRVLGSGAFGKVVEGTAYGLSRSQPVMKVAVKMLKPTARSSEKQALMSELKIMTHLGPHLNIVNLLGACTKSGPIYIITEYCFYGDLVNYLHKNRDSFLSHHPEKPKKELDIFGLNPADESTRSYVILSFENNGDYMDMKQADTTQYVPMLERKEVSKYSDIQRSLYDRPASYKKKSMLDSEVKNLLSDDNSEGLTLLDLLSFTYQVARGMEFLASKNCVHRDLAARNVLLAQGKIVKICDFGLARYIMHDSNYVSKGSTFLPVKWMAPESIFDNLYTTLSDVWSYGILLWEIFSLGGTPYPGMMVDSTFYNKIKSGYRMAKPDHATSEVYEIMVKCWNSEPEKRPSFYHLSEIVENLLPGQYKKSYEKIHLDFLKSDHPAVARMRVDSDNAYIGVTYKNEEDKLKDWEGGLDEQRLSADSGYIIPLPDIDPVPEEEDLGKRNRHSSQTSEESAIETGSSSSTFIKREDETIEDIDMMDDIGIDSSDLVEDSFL

Compound	inhibition at 10 µM ([3]; 10 μM, 40 min incubation) [%]	inhibitory activity against PDGFRα (D842Y) [4]	inhibitory activity against CSF-1R [7]	intracellular accumulation (concentration) [9] [µg/mL]	ABL1 inhibition [3]	efflux ratio at 2 h, 50 μM [10]	increase in intracellular concentration [11] [%]	intracellular accumulation (concentration) [11] [µg/mL]	higher intracellular concentration relative to imatinib [11]	apoptosis induction [1]	CC50 [1] [µM]	CC50 ([2]; K562/DOX, 72 h, Annexin V/7-AAD, read-out: LC50 (the source's name)) [µM]	%Kinase inhibition ([3]; 10 μM, 40 min incubation) [%]	CC50 ([1]; Homo sapiens, K562, 72 h) [µM]	CC50 [2, 12] [µM]	Fold change in LC50 (+/- verapamil) [5]	effect of P-gp inhibition by verapamil on cytotoxicity [5]	Toxicity Index (IC50 HaCaT/LC50 K562) [6]	toxicity in nonmalignant B-lymphocytes [8]	CC50 ([2]; human, 72 h) [µM]
4-Methyl-3-((4-(pyridin-3-yl)pyrimidin-2-yl)amino)phenyl-4-((4-(pyrimidin-2-yl)piperidin-1-yl)methyl)benzamide [Compound 11]	–	–	–	–	–	–	–	–	–	induced apoptosis in a dose-dependent manner	24.2 ± 12.2	> 50	26.55	–	–	–	–	–	–	–
Cc1ccc(NC(=O)c2ccc(CN3CCC(c4ccccn4)CC3)cc2)cc1Nc1nccc(-c2cccnc2)n1 [Compound 9]	32.2	broadly comparable to imatinib	broadly comparable to imatinib	23.36	relatively weak inhibition	0.87	14.4	26.73	~4.8 fold	induced apoptosis in a dose-dependent manner	21.8	–	–	21.8 ± 11	20.3 ± 10.3	4.1	reversal of resistance was not significant	–	–	20.3
Cc1ccc(NC(=O)c2ccc(CN3CCC(c4ccncc4)CC3)cc2)cc1Nc1nccc(-c2cccnc2)n1 [Compound 10, 4-Methyl-3-((4-(pyridin-3-yl)pyrimidin-2-yl)amino)phenyl-4-((4-(pyridin-4-yl)piperidin-1-yl)methyl)benzamide]	39.6	–	–	–	–	–	–	–	–	inactive	–	–	–	> 50	37.5 ± 10.1	–	–	–	–	37.5
Cc1ccc(NC(=O)c2ccc(CN3CCC(n4cccc4)CC3)cc2)cc1Nc1nccc(-c2cccnc2)n1 [Compound 12, 4-((4-(1H-Pyrrol-1-yl)piperidin-1-yl)methyl)-N-(4-methyl-3-((4-(pyridin-3-yl)pyrimidin-2-yl)amino)phenyl)benzamide]	47.4	–	–	–	–	–	–	–	–	inactive	–	–	–	> 50	–	–	–	–	–	–
Cc1ccc(NC(=O)c2ccc(CN3CCC(n4cnnc4)CC3)cc2)cc1Nc1nccc(-c2cccnc2)n1 [Compound 14, 4-((4-(4H-1,2,4-Triazol-4-yl)piperidin-1-yl)methyl)-N-(4-methyl-3-((4-(pyridin-3-yl)pyrimidin-2-yl)amino)phenyl)benzamide]	36.1	–	–	–	–	–	–	–	–	inactive	–	–	–	> 50	> 50	–	–	–	–	–

More lines, main results first:

inhibition at 10 µM ([3]; 10 μM, 40 min incubation) [%]	inhibitory activity against PDGFRα (D842Y) [4]	inhibitory activity against CSF-1R [7]	intracellular accumulation (concentration) [9] [µg/mL]	ABL1 inhibition [3]	efflux ratio at 2 h, 50 μM [10]	increase in intracellular concentration [11] [%]	intracellular accumulation (concentration) [11] [µg/mL]	higher intracellular concentration relative to imatinib [11]	Compound	apoptosis induction [1]	CC50 [1] [µM]	CC50 ([2]; K562/DOX, 72 h, Annexin V/7-AAD, read-out: LC50 (the source's name)) [µM]	%Kinase inhibition ([3]; 10 μM, 40 min incubation) [%]	CC50 ([1]; Homo sapiens, K562, 72 h) [µM]	CC50 [2, 12] [µM]	Fold change in LC50 (+/- verapamil) [5]	effect of P-gp inhibition by verapamil on cytotoxicity [5]	Toxicity Index (IC50 HaCaT/LC50 K562) [6]	toxicity in nonmalignant B-lymphocytes [8]	CC50 ([2]; human, 72 h) [µM]
37.7	–	–	–	–	–	–	–	–	Cc1ccc(NC(=O)c2ccc(CN3CCC(c4ccccc4)CC3)cc2)cc1Nc1nccc(-c2cccnc2)n1 [Compound 7]	inactive	–	–	–	> 50	> 50	–	–	–	–	–
40	broadly comparable to imatinib	broadly comparable to imatinib	14.14	moderate inhibition	0.98	2.5	14.49	approximately 2.6 fold	Cc1ccc(NC(=O)c2ccc(CN3CCC(c4ccc(N)cc4)CC3)cc2)cc1Nc1nccc(-c2cccnc2)n1 [Compound 8, 4-((4-(4-Aminophenyl)piperidin-1-yl)methyl)-N-(4-methyl-3-((4-(23yridine-3-yl)pyrimidin-2-yl)amino)phenyl)benzamide]	induced apoptosis in a dose-dependent manner	–	–	–	2.29	5.29	1.3	minimal changes; also recorded: reversal of resistance was not significant	3.4	No significant toxicity; also recorded: no significant cytotoxicity	–
47.1	–	–	–	–	–	–	–	–	Cc1ccc(NC(=O)c2ccc(CN3CCC(n4ccnc4)CC3)cc2)cc1Nc1nccc(-c2cccnc2)n1 [Compound 13, 4-((4-(1H-Imidazol-1-yl)piperidin-1-yl)methyl)-N-(4-methyl-3-((4-(pyridin-3-yl)pyrimidin-2-yl)amino)phenyl)benzamide]	induced apoptosis in a dose-dependent manner	–	–	–	18.2 ± 1.9	32.5 ± 14.5	1.9	minimal changes; also recorded: reversal of resistance was not significant	–	–	–
